Measurements taken from US11547697B2, “Heterocyclic compounds and uses thereof” (MILLENNIUM PHARMACEUTICALS, INC., priority 2009, dated 2023).
Where two headings read alike, the source gives them in different places.

Experiments:
[1] = target: p110α/p85α (Homo sapiens (Human), UniProt P42336); test: PI 3-Kinase (human) HTRF assay, p110α/p85α; type: biochemical
[2] = target: p110β/p85α (Homo sapiens (Human), UniProt P42338); test: PI 3-Kinase (human) HTRF assay, p110β/p85α; type: biochemical
[3] = target: p110δ/p85α (Homo sapiens (Human), UniProt O00329); test: PI 3-Kinase (human) HTRF assay, p110δ/p85α; type: biochemical
Sequence of p110δ/p85α (O00329 whole entry): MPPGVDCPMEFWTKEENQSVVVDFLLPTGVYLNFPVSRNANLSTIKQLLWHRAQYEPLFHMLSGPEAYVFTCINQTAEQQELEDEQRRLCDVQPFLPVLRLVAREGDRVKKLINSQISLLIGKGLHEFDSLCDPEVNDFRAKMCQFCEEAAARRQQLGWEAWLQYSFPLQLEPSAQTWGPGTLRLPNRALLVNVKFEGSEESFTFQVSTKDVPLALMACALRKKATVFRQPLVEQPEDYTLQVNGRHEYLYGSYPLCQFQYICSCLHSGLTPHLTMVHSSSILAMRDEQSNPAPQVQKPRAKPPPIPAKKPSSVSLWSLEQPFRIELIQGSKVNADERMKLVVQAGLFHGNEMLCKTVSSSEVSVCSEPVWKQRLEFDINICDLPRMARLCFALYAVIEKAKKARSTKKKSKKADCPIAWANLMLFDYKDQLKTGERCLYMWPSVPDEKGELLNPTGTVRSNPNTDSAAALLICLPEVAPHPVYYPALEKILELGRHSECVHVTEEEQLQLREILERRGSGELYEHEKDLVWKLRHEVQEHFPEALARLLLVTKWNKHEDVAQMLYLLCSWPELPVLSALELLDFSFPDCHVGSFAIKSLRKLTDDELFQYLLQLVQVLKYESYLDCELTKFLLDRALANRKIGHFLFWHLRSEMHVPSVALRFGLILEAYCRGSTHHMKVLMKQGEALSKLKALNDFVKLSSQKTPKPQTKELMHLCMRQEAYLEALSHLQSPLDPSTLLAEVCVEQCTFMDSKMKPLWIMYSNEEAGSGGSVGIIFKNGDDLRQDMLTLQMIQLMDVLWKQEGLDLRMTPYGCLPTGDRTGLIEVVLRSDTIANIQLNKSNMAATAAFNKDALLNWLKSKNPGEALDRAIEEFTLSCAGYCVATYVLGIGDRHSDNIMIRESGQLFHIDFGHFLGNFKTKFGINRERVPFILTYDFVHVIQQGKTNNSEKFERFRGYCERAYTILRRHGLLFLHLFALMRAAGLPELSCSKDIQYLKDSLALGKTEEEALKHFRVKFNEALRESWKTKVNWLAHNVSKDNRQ
Sequence of p110δ/p85α (P27986 whole entry partner): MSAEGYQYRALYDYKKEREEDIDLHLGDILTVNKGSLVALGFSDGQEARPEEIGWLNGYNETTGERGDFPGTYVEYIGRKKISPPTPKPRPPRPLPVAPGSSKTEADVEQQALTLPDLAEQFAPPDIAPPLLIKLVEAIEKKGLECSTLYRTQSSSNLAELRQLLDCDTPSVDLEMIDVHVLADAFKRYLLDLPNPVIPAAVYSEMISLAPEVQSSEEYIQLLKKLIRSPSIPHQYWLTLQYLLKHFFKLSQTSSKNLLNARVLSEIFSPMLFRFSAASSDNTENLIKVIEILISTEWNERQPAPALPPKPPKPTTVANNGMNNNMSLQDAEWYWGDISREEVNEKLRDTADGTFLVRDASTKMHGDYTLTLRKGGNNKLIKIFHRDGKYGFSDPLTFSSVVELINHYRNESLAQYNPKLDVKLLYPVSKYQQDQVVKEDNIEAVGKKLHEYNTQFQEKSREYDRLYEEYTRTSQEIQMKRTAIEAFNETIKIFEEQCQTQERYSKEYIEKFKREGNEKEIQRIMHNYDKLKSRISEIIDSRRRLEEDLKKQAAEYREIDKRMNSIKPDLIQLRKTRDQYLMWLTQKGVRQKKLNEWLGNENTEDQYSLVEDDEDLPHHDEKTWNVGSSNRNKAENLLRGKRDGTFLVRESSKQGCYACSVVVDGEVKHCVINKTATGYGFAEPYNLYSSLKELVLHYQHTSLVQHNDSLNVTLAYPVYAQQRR

[4] = target: p110γ (Homo sapiens (Human), UniProt P48736); test: PI 3-Kinase (human) HTRF assay, p110γ; type: biochemical
Sequence of p110γ (P48736 whole entry): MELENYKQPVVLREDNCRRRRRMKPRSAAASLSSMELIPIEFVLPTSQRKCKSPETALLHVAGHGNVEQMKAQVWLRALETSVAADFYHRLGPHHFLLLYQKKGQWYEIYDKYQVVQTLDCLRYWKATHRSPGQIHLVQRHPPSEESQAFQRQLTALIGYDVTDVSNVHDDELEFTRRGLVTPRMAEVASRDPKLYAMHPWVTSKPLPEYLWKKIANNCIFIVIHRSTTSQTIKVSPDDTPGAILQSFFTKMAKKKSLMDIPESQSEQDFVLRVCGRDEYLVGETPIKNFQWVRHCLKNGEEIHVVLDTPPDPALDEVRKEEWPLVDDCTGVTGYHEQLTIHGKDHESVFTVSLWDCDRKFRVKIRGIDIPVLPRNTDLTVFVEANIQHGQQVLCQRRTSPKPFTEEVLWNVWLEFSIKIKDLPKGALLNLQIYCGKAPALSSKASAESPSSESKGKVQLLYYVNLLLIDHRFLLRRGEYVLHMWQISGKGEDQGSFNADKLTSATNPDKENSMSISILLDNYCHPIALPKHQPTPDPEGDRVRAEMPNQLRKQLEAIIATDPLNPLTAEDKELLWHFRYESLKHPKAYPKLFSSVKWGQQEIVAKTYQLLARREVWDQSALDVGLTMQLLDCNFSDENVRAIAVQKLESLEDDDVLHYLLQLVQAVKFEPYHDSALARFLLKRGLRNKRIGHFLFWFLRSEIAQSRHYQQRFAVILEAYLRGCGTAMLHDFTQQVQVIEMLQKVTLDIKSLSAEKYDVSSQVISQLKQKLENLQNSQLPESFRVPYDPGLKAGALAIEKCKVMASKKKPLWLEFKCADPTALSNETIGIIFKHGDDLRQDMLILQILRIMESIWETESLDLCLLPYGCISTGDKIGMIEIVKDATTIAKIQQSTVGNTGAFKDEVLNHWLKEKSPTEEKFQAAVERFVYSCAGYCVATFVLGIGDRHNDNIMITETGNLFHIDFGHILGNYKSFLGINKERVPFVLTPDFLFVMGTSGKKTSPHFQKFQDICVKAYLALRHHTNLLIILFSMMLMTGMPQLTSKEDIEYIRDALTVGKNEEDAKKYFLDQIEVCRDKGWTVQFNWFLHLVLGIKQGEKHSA
Procedure: An exemplary system is PI 3-Kinase (human) HTRF™ Assay from Upstate. […] Briefly, the assay is a time resolved FRET assay that indirectly measures PIP3 product formed by the activity of a PI3-K. The kinase reaction is performed in a microtitre plate (e.g., a 384 well microtitre plate). The total reaction volume is approximately 20 ul per well. In the first step, each well receives 2 ul of test compound in 20% dimethylsulphoxide resulting in a 2% DMSO final concentration. Next, approximately 14.5 ul of a kinase/PIP2 mixture (diluted in 1× reaction buffer) is added per well for a final concentration of 0.25-0.3 ug/ml kinase and 10 μM PIP2. The plate is sealed and incubated for 15 minutes at room temperature. To start the reaction, 3.5 ul of ATP (diluted in 1× reaction buffer) is added per well for a final concentration of 10 μM ATP. The plate is sealed and incubated for 1 hour at room temperature. The reaction is stopped by adding 5 ul of Stop Solution per well and then 5 ul of Detection Mix is added per well. The plate is sealed, incubated for 1 hour at room temperature, and then read on an appropriate plate reader. Data is analyzed and IC50s are generated using GraphPad Prism 5. […] For PI3K α, β, δ, and γ, the nM concentration of inhibitor to reach IC50 is provided.

[5] = tested on: tumor cells with a PI3Kα mutation (e.g., MDA-MB-361 and T47D); test: Proliferation of tumor cells with PI3Kα mutation; type: cell-based; conditions: Homo sapiens
[6] = T47D cells, read-out: T47D proliferation
[7] = in vitro, read-out: PI3K α IC50
[8] = in vitro, read-out: PI3K β IC50
[9] = in vitro, read-out: PI3K γ IC50
[10] = T47D cells, read-out: T47D proliferation IC50
[11] = in vitro, read-out: PI3K δ IC50
[12] = PC3, read-out: PC3 proliferation In Vitro IC50

Sequence of p110α/p85α (P42336 whole entry): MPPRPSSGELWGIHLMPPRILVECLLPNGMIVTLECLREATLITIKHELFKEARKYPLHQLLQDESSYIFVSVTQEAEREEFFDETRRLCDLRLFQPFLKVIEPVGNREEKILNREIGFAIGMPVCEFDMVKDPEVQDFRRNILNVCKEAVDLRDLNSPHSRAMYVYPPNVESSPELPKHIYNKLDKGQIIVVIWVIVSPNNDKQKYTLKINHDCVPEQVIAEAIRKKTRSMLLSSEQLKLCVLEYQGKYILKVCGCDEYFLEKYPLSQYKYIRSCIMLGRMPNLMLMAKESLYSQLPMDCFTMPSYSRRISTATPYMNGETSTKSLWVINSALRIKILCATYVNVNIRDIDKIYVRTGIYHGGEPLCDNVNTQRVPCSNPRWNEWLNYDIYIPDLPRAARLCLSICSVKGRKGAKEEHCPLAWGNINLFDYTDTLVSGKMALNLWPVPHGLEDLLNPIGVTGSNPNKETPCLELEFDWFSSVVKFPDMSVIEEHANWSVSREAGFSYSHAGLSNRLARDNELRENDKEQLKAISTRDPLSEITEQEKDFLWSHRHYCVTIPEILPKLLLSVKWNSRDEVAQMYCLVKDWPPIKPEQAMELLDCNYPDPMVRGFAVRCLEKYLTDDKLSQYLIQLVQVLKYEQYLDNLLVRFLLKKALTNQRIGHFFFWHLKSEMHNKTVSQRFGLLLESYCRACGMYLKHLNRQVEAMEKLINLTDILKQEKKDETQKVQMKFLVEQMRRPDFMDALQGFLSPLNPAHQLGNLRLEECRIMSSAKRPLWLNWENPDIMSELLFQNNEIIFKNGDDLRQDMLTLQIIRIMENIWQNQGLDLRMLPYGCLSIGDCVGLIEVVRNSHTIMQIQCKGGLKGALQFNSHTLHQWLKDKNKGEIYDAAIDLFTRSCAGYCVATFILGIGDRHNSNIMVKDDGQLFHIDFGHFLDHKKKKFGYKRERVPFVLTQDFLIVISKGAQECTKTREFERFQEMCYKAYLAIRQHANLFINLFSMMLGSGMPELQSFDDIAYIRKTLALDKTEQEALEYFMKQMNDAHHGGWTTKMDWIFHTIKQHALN
Sequence of p110α/p85α (P27986 whole entry partner): as the sequence (P27986 whole entry partner) above
Sequence of p110β/p85α (P42338 whole entry): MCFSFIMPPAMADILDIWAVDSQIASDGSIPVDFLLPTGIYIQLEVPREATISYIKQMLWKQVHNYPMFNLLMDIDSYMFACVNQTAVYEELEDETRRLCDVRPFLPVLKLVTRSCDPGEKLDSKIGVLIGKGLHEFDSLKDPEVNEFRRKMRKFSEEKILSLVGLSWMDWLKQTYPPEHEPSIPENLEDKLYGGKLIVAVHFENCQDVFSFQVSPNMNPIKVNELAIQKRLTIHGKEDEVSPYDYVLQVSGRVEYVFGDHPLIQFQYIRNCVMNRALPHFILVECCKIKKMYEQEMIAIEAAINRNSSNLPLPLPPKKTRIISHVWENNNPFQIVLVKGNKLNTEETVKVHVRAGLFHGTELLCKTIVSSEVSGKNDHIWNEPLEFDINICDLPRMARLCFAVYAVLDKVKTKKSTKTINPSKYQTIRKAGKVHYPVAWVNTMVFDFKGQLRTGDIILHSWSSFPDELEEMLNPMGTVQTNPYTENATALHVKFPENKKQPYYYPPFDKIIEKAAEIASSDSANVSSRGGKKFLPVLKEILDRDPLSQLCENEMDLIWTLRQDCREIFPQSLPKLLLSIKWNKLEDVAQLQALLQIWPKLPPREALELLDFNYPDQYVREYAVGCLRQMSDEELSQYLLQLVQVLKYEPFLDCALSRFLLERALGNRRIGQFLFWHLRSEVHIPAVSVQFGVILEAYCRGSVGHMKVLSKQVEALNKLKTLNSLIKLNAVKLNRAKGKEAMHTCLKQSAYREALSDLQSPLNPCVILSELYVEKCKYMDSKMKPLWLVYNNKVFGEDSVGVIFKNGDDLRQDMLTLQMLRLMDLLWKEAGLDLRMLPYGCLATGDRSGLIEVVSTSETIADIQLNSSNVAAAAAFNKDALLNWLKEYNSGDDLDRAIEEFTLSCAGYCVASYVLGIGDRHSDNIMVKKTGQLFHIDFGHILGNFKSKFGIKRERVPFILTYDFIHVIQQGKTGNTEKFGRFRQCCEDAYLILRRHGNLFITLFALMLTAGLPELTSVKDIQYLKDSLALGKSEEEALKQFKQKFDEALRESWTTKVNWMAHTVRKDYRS
Sequence of p110β/p85α (P27986 whole entry partner): as the sequence (P27986 whole entry partner) above

With `CC(=O)N1CCC(N(C)c2ncnc3ccc(-c4ccc5oc(N)nc5c4)cc23)CC1` [compound 137] the IC50 ([1]; read-out: PI3K α IC50) was under 0.1 µM, the IC50 ([2]; read-out: PI3K β IC50) was under 1 µM and the IC50 ([3]; read-out: PI3K δ IC50) was under 1 µM. The IC50 ([4]; read-out: PI3K γ IC50) was under 1 µM and the IC50 [5, 6] was under 1 µM.
Molecule `CN(C)CC(=O)N1CCN(c2cnc3ccc(-c4ccc5oc(N)nc5c4)cc3n2)CC1` [compound 139] has an IC50 ([1]; read-out: PI3K α IC50) of under 0.1 µM, an IC50 ([2]; read-out: PI3K β IC50) of under 1 µM and an IC50 ([3]; read-out: PI3K δ IC50) of under 1 µM. For the same molecule, the IC50 ([4]; read-out: PI3K γ IC50) was under 1 µM and the IC50 [5, 6] was under 1 µM.
Molecule `Nc1nc2cc(-c3ccc4ncc(C(=O)NC5CCC(O)CC5)n4c3)ccc2o1` (stereo not shown) [compound 143] has an IC50 [5, 6] of under 1 µM.
For `Nc1nc2cc(-c3ccc4ncc(C(=O)N5CCN(CCO)CC5)n4c3)ccc2o1` [compound 148], the IC50 ([1]; read-out: PI3K α IC50) was under 0.1 µM, the IC50 ([4]; read-out: PI3K γ IC50) was under 10 µM and the IC50 [5, 6] was under 10 µM.
With `CCN1CCN(c2cnc3ccc(-c4ccc5oc(N)nc5c4)cc3n2)CC1` [compound 152] the IC50 ([1]; read-out: PI3K α IC50) was under 0.1 µM, the IC50 ([2]; read-out: PI3K β IC50) was under 0.1 µM and the IC50 ([3]; read-out: PI3K δ IC50) was under 10 µM. The IC50 ([4]; read-out: PI3K γ IC50) was under 1 µM and the IC50 [5, 6] was under 10 µM.
For `CC(C)N1CCN(C(=O)c2cnc3ccc(-c4ccc5oc(N)nc5c4)cn23)CC1` [compound 160], the IC50 ([1]; read-out: PI3K α IC50) was under 0.1 µM, the IC50 ([2]; read-out: PI3K β IC50) was under 10 µM and the IC50 [5, 6] was under 10 µM.
`Nc1nc2cc(-c3ccc4ncc(N5CCC(N)CC5)nc4c3)ccc2o1` [compound 168] showed an IC50 ([1]; read-out: PI3K α IC50) of under 0.1 µM, an IC50 ([2]; read-out: PI3K β IC50) of under 1 µM and an IC50 ([3]; read-out: PI3K δ IC50) of under 10 µM. The IC50 [5, 6] was under 10 µM.
`Nc1nc2cc(-c3ccc4ncn(CCO)c(=O)c4c3)ccc2o1` [compound 184] was tested, and the IC50 ([1]; read-out: PI3K α IC50) was under 0.1 µM, the IC50 ([2]; read-out: PI3K β IC50) was under 10 µM and the IC50 ([4]; read-out: PI3K γ IC50) was under 1 µM. For the same molecule, the IC50 [5, 6] was under 10 µM.
`CC1CN(C(=O)c2cnc3ccc(-c4ccc5oc(N)nc5c4)cn23)CCO1` (stereo not shown) [compound 201] showed an IC50 [1, 7] of under 0.1 µM, an IC50 [2, 8] of under 10 µM and an IC50 [4, 9] of under 10 µM. It also gave an IC50 [5, 10] of under 10 µM.
`CC(C)(N)C(=O)N1CCN(c2cnc3ccc(-c4ccc5oc(N)nc5c4)cc3n2)CC1` [compound 213] gave an IC50 [1, 7] of under 0.1 µM, an IC50 [2, 8] of under 1 µM and an IC50 [3, 11] of under 1 µM. The IC50 [5, 10] was under 1 µM.
`NC(=O)[C@@H]1CCCN1c1cnc2ccc(-c3ccc4oc(N)nc4c3)cc2n1` [compound 257] showed an IC50 [1, 7] of under 0.1 µM and an IC50 [5, 10] of under 10 µM.
`Nc1nc2cc(-c3ccc4ncc(N5CCN(C6CC6)CC5)nc4c3)ccc2o1` [compound 261] gave an IC50 [1, 7] of under 0.1 µM, an IC50 [2, 8] of under 1 µM and an IC50 [4, 9] of under 1 µM. For the same molecule, the IC50 [5, 10] was under 10 µM.
With `NC(=O)[C@@H]1CCCN1C(=O)C1CN(c2cnc3ccc(-c4ccc5oc(N)nc5c4)cc3n2)C1` [compound 283] the IC50 [1, 7] was under 0.1 µM, the IC50 [4, 9] was under 1 µM and the IC50 [5, 10] was under 10 µM.
In the case of `Cc1ccc(NC(=O)c2cnc3ccc(-c4ccc5oc(N)nc5c4)cn23)cn1` [compound 294], the IC50 [1, 7] is reported as under 0.1 µM, the IC50 [3, 11] is reported as under 10 µM and the IC50 [4, 9] is reported as under 0.1 µM. It also gave an IC50 [5, 10] of under 10 µM.
For `Nc1nc2cc(-c3ccc4ncc(N5CC(N6CCN(CC7CC7)CC6)C5)nc4c3)ccc2o1` [compound 335], the IC50 [1, 7] was under 0.1 µM, the IC50 [2, 8] was under 10 µM and the IC50 [3, 11] was under 10 µM. For the same molecule, the IC50 [5, 10] was under 1 µM.
`Nc1nc2cc(-c3ccc4ncc(N5CC(N6CCC(O)CC6)C5)nc4c3)ccc2o1` [compound 341] showed an IC50 [1, 7] of under 1 µM, an IC50 [3, 11] of under 10 µM and an IC50 [4, 9] of under 10 µM. For the same molecule, the IC50 [5, 10] was under 10 µM.
Work on `CO[C@@H]1CCN(C(=O)c2cnc3ccc(-c4ccc5oc(N)nc5c4)cn23)C1` [compound 464] yielded an IC50 ([1]; read-out: PI3K α In Vitro IC50) of under 0.1 µM, an IC50 ([4]; read-out: PI3K γ In Vitro IC50) of under 1 µM and an IC50 [5, 12] of under 10 µM.
Work on `Nc1nc2cc(-c3ccc4ncc(C(=O)N5CCC(F)(F)C5)n4c3)ccc2o1` [compound 471] yielded an IC50 ([1]; read-out: PI3K α In Vitro IC50) of under 0.1 µM, an IC50 ([4]; read-out: PI3K γ In Vitro IC50) of under 0.1 µM and an IC50 [5, 12] of under 10 µM.
In the case of `Nc1nc2cc(-c3ccc4ncc(C(=O)N5CC(F)(F)C5)n4c3)ccc2o1` [compound 473], the IC50 ([1]; read-out: PI3K α In Vitro IC50) is reported as under 0.1 µM, the IC50 ([4]; read-out: PI3K γ In Vitro IC50) is reported as under 0.1 µM and the IC50 [5, 12] is reported as under 1 µM.
With `Nc1nc2cc(-c3ccc4ncc(C(=O)N5C6CCC5COC6)n4c3)ccc2o1` [compound 480] the IC50 ([1]; read-out: PI3K α In Vitro IC50) was under 0.1 µM, the IC50 ([3]; read-out: PI3K δ In Vitro IC50) was under 10 µM and the IC50 ([4]; read-out: PI3K γ In Vitro IC50) was under 1 µM. It also gave an IC50 [5, 12] of under 1 µM.
`C[C@H]1COCCN1C(=O)c1cnc2ccc(-c3ccc4oc(N)nc4c3)cn12` [compound 483] showed an IC50 ([1]; read-out: PI3K α In Vitro IC50) of under 0.1 µM, an IC50 ([2]; read-out: PI3K β In Vitro IC50) of under 10 µM and an IC50 ([4]; read-out: PI3K γ In Vitro IC50) of under 10 µM. It also gave an IC50 [5, 12] of under 10 µM.
`COc1ncc(-c2ccc3ncn(C4CCN(C)CC4)c(=O)c3c2)cc1NS(C)(=O)=O` [compound 525] was tested, and the IC50 ([1]; read-out: PI3K α In Vitro IC50) was under 0.1 µM, the IC50 ([2]; read-out: PI3K β In Vitro IC50) was under 1 µM and the IC50 ([3]; read-out: PI3K δ In Vitro IC50) was under 0.1 µM. It also gave an IC50 ([4]; read-out: PI3K γ In Vitro IC50) of under 10 µM.
`CN1CCC(n2cnc3ccc(-c4cnc(Cl)c(NS(C)(=O)=O)c4)cc3c2=O)CC1` [compound 526] showed an IC50 ([1]; read-out: PI3K α In Vitro IC50) of under 0.1 µM, an IC50 ([2]; read-out: PI3K β In Vitro IC50) of under 10 µM and an IC50 ([3]; read-out: PI3K δ In Vitro IC50) of under 1 µM. It also gave an IC50 [5, 12] of under 10 µM.
In the case of `CN1CCC(n2cnc3ccc(-c4cnc(Cl)c(NS(=O)(=O)c5ccccc5)c4)cc3c2=O)CC1` [compound 527], the IC50 ([1]; read-out: PI3K α In Vitro IC50) is reported as under 0.1 µM, the IC50 ([2]; read-out: PI3K β In Vitro IC50) is reported as under 0.1 µM and the IC50 ([3]; read-out: PI3K δ In Vitro IC50) is reported as under 0.1 µM. For the same molecule, the IC50 ([4]; read-out: PI3K γ In Vitro IC50) was under 1 µM.
